Results on 1 compound are retold here after patent US11465972B2, “Inhibitors of oxidized low-density lipoprotein receptor 1 and methods of use thereof” (United States Government as represented by the Department …, priority 2015, dated 2022).

Data set [1] addresses human LOX-1 (Homo sapiens, UniProt P78380). The experiment in a line: Dil-ox-LDL uptake in CHO cells overexpressing human LOX-1. As to conditions: 0, 20, 200, 2000 nM, read-out: IC50, inhibition of Dil-ox-LDL uptake. Format: cell-based. The procedure:
FIG. 3A, FIG. 3B, FIG. 3C and FIG. 3D depict the inhibitory effect of the lead compounds on Dil-ox-LDL uptake by HUVECs and CHO cells (measured by flow cytometry) and the effect of the lead compounds on ox-LDL-induced LOX-1 mRNA and protein expression. (FIG. 3A) (Upper Panel) Flow cytometry measurements using HUVECs in the presence of the five lead compounds (Mol-1-Mol-5), each a at 200 nM concentration. (Lower Panel) The percentage of internalized ox-LDL. Graphs show data as mean (±SD); n=4. *P<0.01 or <0.05 vs. control. (FIG. 3B) IC50 value for Mol-5. IC50 value (in nM) is based on inhibition of Dil-ox-LDL uptake in CHO cells overexpressing human LOX-1. Graphs show data as mean (±SD); n=5. *P<0.01 or <0.05 vs. control. (FIG. 3C) Western blotting assay showing LOX-1 protein expression in HUVECs following incubation with 200 nM Mol-1 to Mol-5 for 30 min, and subsequently exposure to 5 μg/mL ox-LDL for 6 hours. […]
For further characterization, human endothelial cells and fluorescently-labeled Dil-ox-LDL were used for measuring initiation of atherogenic process based on interaction of vascular wall with ox-LDL. Ox-LDL uptake by human umbilical vein endothelial cells (HUVECs) was measured after exposure to 200 nM of each compound using flow cytometry. […] The dose response to modulation of ox-LDL uptake by Mol-5 (0, 20, 200 and 2000 nM) was also measured in CHO cells overexpressing human LOX-1. […]

A short description of data set [2]: Liver microsomal stability, mouse. Format: in vitro ADME. The conditions noted are these: mouse liver microsomes. On the procedure:
Metabolic stability or clearance is recognized as one of the main determinants of drug concentration in blood. The metabolic stability of Mol-5 was tested using liver microsomes form mice and humans to obtain stability ranking and intrinsic clearance.
A general note: Liver microsomes are vesicles of endoplasmic reticulum, rich in cytochrome P450 enzymes.

Data set [3] concerns ECs. The experiment in a line: Second dose response of ox-LDL uptake by ECs (lower concentrations). It is filed as cell-based. As to conditions: second dose response curve, estimated. On the procedure:
FIG. 6A depicts the IC50 for Mol-5. The x-axis represents Mol-5 concentration (nM) and the y-axis represents ox-LDL uptake by ECs. FIG. 6B depicts the ox-LDL uptake with Mol-5 inhibition.
For further characterization, human endothelial cells and fluorescently-labeled Dil-ox-LDL were used for measuring initiation of atherogenic process based on interaction of vascular wall with ox-LDL. Ox-LDL uptake by human umbilical vein endothelial cells (HUVECs) was measured after exposure to 200 nM of each compound using flow cytometry. […] The dose response to modulation of ox-LDL uptake by Mol-5 (0, 20, 200 and 2000 nM) was also measured in CHO cells overexpressing human LOX-1. […] A second dose response curve was conducted to narrow in on the effect of lower concentrations of Mol-5 on ox-LDL uptake (FIG. 6A). Using this information the EC50 was estimated to be […] (FIG. 6B).

Molecules are shown by their SMILES. Where “and” joins values, the source holds several entries; their conditions need not be identical. Equal entries are not always repeated.

Turning to `Cc1cc(C)n(CC(O)COc2ccccc2)n1` (centres unmarked) [Mol-5, 1-(3,5-dimethyl-1H-pyrazol-1-yl)-3-phenoxypropan-2-ol], the IC50 (as a rule, the concentration that gives 50% inhibition) in data set [1] is ~200 nM and 200 nM. Moreover, in data set [2], the half-life (as a rule, the time needed for the level to fall by half in the phase considered) stood at 1.7 ± 0.1 min; the “metabolic stability (in words)” value is given as “low stability”; the microsomal CLint (in general, the rate of metabolic loss divided by the concentration) amounted to 836 ± 40.8 µL/min/mg. Besides, the EC50 (commonly the concentration at which the effect is half-maximal) in data set [3] is 64 nM.
